Measurements as given in patent publication US9783536B2, “Nitrogen-containing heterocyclic compound or salt thereof” (FUJIFILM Corporation, priority 2013, dated 2017).

What was measured:
[1] = target: T1, human PI3Kα protein (Homo sapiens, UniProt P42336); assay: PI3Kα enzyme assay (ADP-Glo); format: biochemical; details: read-out: PI3Kα enzyme inhibitory activity
T1 construct: purchased Carna Biosciences, Inc; host or cells: baculovirus expression system
Summary of the method: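 Biotinylated human PI3Kα (baculovirus-expressed, 4.5 nmol/L) pre-incubated 15 min with compound in Tris-HCl pH 7.5, MgCl2, BSA; reaction 60 min at 25° C with 50 μmol/L PIP2 and 100 μmol/L ATP final. ADP quantified by ADP-Glo luminescence; IC50 calculated.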

[2] = target: T2, GST fusion human ERK2 protein (Homo sapiens, UniProt P28482); assay: ERK2 enzyme assay (2); format: biochemical; details: ERK2 enzyme assay (2); read-out: ERK2 enzyme inhibitory activity (2)
T2 construct: purchased Carna Biosciences, Inc; host or cells: E. coli expression system
T2 sequence (P28482 whole entry, the tested form may be a part): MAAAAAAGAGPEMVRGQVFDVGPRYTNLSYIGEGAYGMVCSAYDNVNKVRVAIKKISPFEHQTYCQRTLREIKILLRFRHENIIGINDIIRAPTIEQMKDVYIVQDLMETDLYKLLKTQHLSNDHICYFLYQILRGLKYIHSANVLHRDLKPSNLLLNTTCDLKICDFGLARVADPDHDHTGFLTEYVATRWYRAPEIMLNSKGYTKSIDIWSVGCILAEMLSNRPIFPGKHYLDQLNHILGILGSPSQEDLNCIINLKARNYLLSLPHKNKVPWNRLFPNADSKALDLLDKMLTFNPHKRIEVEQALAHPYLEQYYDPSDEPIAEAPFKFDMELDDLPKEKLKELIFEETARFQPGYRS
Summary of the method: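 GST-tagged human ERK2 expressed in E. coli (1.25 nmol/L) was preincubated with compound for 15 min at room temperature in pH 7.5 Hepes buffer with MgCl2, DTT and Brij35. Reaction with FL-Peptide 8 (final 4.25 μmol/L) and ATP (final 1 mmol/L) ran 120 min at 25 °C; EDTA stopped it, and phosphorylated peptide was quantified by mobility-shift separation to derive IC50.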

T1 sequence (P42336 whole entry): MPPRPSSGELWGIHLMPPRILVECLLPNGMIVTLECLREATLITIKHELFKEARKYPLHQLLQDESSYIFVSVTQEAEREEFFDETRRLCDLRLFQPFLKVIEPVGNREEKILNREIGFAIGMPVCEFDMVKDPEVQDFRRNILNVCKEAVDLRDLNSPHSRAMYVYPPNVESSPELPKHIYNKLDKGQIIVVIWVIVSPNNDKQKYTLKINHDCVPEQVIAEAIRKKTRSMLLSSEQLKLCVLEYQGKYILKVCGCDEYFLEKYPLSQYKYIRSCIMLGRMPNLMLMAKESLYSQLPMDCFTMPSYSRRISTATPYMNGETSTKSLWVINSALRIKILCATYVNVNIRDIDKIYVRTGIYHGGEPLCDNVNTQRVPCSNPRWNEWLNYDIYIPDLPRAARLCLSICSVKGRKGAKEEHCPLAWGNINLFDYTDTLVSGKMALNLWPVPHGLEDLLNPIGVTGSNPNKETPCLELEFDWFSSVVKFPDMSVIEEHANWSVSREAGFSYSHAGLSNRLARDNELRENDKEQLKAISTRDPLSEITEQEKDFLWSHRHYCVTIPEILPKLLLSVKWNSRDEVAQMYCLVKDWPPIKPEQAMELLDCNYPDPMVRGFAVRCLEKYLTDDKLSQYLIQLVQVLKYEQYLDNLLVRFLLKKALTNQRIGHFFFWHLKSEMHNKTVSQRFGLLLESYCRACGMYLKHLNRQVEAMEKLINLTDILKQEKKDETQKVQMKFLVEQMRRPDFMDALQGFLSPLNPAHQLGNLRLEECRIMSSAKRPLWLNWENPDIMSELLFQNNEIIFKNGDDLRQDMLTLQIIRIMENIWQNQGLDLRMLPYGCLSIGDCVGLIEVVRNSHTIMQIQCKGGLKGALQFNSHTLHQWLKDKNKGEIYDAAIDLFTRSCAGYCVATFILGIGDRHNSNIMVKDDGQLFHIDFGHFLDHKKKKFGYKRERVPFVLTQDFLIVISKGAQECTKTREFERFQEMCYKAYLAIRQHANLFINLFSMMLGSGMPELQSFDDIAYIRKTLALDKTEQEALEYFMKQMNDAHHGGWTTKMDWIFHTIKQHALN
T1 sequence (P27986 whole entry partner): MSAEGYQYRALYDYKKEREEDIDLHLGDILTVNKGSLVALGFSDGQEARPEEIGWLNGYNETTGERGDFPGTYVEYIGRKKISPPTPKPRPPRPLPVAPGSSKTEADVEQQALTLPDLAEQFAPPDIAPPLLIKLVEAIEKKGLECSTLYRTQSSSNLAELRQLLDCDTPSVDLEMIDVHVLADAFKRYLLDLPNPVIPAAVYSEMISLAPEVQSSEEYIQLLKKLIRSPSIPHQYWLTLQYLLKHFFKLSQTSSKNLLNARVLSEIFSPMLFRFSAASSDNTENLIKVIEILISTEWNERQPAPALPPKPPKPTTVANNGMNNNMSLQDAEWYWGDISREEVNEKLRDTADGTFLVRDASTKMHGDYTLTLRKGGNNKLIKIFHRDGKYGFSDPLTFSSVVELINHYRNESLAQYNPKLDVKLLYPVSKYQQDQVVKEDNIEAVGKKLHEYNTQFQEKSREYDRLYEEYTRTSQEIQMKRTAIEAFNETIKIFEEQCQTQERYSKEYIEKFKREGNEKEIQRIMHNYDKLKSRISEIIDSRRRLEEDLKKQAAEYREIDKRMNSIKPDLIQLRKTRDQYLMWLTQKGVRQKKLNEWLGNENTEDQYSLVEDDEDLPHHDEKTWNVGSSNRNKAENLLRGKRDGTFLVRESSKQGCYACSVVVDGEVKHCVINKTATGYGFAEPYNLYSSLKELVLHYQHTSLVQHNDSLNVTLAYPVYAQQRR

| IC50 [1] [nM] | IC50 [2] [nM] | Compound |
| --- | --- | --- |
| < 1000 | < 1000 | CC(C)c1cnnc(Nc2ccc3ncc(-c4cn(C)nc4-c4ccnc(N)c4)cc3n2)c1 [Example 0752, 7-(3-(2-aminopyridin-4-yl)-1-methyl-1H-pyrazol-4-yl)-N-(5-isopropylpyridazin-3-yl)-1,5-naphthyridine-2-amine] |
| < 1000 | < 1000 | Cc1ccc(-c2nn(C)cc2-c2cnc3ccc(Nc4cc(C(C)C)cnn4)nc3c2)cc1 [Example 0767, N-(5-isopropylpyridazin-3-yl)-7-(1-methyl-3-(4-methylphenyl)-1H-pyrazol-4-yl)-1,5-naphthyridine-2-amine] |
| < 1000 | 1000 to 10000 | CC(C)c1cnnc(Nc2ccc3ncc(-c4cn(C)nc4-c4ccc(CN(C)C)cc4)cc3n2)c1 [Example 0768] |
| < 1000 | < 1000 | CC(C)c1cnnc(Nc2ccc3ncc(-c4cn(C)nc4-c4ccc(OCCN(C)C)cc4)cc3n2)c1 [Example 0774] |
| < 1000 | < 1000 | CC(C)c1cnnc(Nc2ccc3ncc(-c4cn(C)nc4-c4ccc(OCC(=O)N(C)C)cc4)cc3n2)c1 [Example 0777, 2-(4-(4-(6-((5-Isopropylpyridazin-3-yl)amino)-1,5-naphthyridin-3-yl)-1-methyl-1H-pyrazol-3-yl)phenoxy)-N,N-dimethylacetamide] |
| < 1000 | < 1000 | CC(C)c1cnnc(Nc2ccc3ncc(-c4cn(C)nc4-c4ccc(OCCN5CCCCC5)cc4)cc3n2)c1 [Example 0778] |
| < 1000 | < 1000 | CC(C)c1cnnc(Nc2ccc3ncc(-c4cn(C)nc4C4CNC4)cc3n2)c1 [Example 0780, 7-(3-(azetidin-3-yl)-1-methyl-1H-pyrazol-4-yl)-N-(5-isopropylpyridazin-3-yl)-1,5-naphthyridine-2-amine] |
| < 1000 | < 1000 | COCCn1cc(-c2nn(C)cc2-c2cnc3ccc(Nc4cc(C(C)C)cnn4)nc3c2)cn1 [Example 0784] |
| < 1000 | < 1000 | COCC(C)c1cnnc(Nc2ccc3ncc(-c4cn(C)nc4C)cc3n2)c1 (stereo not drawn) [Example 0786, 7-(1,3-dimethyl-1H-pyrazol-4-yl)-N-(5-(1-methoxypropan-2-yl)pyridazin-3-yl)-1,5-naphthyridine-2-amine] |
| < 1000 | 1000 to 10000 | CC(C)c1cnnc(Nc2ccc3ncc(-c4cn(C)nc4-c4ccc(N(C)C)nc4)cc3n2)c1 [Example 0793] |
| < 1000 | < 1000 | CC(C)c1cnnc(Nc2ccc3ncc(-c4cn(C)nc4Nc4ccncc4)cc3n2)c1 [Example 0798] |
| < 1000 | < 1000 | CC(C)c1cnnc(Nc2ccc3ncc(-c4cn(C)nc4COc4cccnc4)cc3n2)c1 [Example 0799, N-(5-isopropylpyridazin-3-yl)-7-(1-methyl-3-((pyridin-3-yloxy)methyl)-1H-pyrazol-4-yl)-1,5-naphthyridine-2-amine] |
| < 1000 | < 1000 | CC(C)c1cnnc(Nc2ccc3ncc(-c4cn(C)nc4N(C)c4cccnc4)cc3n2)c1 [Example 0802] |
| < 1000 | < 1000 | CC(C)c1cnnc(Nc2ccc3ncc(-c4cn(C)nc4COc4ccccc4)cc3n2)c1 [Example 0803] |
| < 1000 | < 1000 | COc1cccc(OCc2nn(C)cc2-c2cnc3ccc(Nc4cc(C(C)C)cnn4)nc3c2)c1 [Example 0805] |
| < 1000 | < 1000 | COc1ccc(OCc2nn(C)cc2-c2cnc3ccc(Nc4cc(C(C)C)cnn4)nc3c2)cc1 [Example 0806] |
| < 1000 | < 1000 | CC(C)c1cnnc(Nc2ccc3ncc(-c4cn(C)nc4/C=C/c4cccnc4)cc3n2)c1 [Example 0807] |
| 1000 to 10000 | < 1000 | CC(C)c1cnnc(Nc2ccc3ncc(-c4cn(C)nc4CN(C)c4cccnc4)cc3n2)c1 [Example 0808] |

Second part, the compound before the results:

| Compound | IC50 [1] [nM] | IC50 [2] [nM] |
| --- | --- | --- |
| CC(=O)N1CC(OCCn2cc(-c3cnc4ccc(Nc5cc(C(C)C)cnn5)nc4c3)cn2)C1 [Example 0754, 1-(3-(2-(4-(6-((5-isopropylpyridazin-3-yl)amino)-1,5-naphthyridin-3-yl)-1H-pyrazol-1-yl)ethoxy)azetidin-1-yl)ethanone] | < 1000 | < 1000 |
| CC(C)c1cnnc(Nc2ccc3ncc(-c4cnn(CCOC5CN(S(C)(=O)=O)C5)c4)cc3n2)c1 [Example 0755, N-(5-isopropylpyridazin-3-yl)-7-(1-(2-((1-(methylsulfonyl)azetidin-3-yl)oxy)ethyl)-1H-pyrazol-4-yl)-1,5-naphthyridine-2-amine] | < 1000 | < 1000 |
| CC(C)c1cnnc(Nc2ccc3ncc(-c4ccnn4C)cc3n2)c1 [Example 0758] | 1000 to 10000 | < 1000 |
| Cn1cc(-c2cnc3ccc(Nc4cc(C5CCOCC5)cnn4)nc3c2)cn1 [Example 0759] | < 1000 | < 1000 |
| Cc1nn(C)cc1-c1cnc2ccc(Nc3cc(C4CCOCC4)cnn3)nc2c1 [Example 0760, 7-(1,3-Dimethyl-1H-pyrazol-4-yl)-N-(5-(tetrahydro-2H-pyran-4-yl)pyridazin-3-yl)-1,5-naphthyridine-2-amine] | < 1000 | < 1000 |
| CC(C)c1cnnc(Nc2ccc3ncc(N4CCOC[C@H]4C)cc3n2)c1 [Example 0762, (R)-N-(5-isopropylpyridazin-3-yl)-7-(3-methylmorpholino)-1,5-naphthyridine-2-amine] | < 1000 | < 1000 |
| CC(C)c1cnnc(Nc2ccc3ncc(N4CCOC[C@@H]4C)cc3n2)c1 [Example 0764] | < 1000 | < 1000 |
| CC(C)c1cnnc(Nc2ccc3ncc(-c4cc(N)ncn4)cc3n2)c1 [Example 0765] | < 1000 | < 1000 |
| CC(C)c1cnnc(Nc2ccc3ncc(-c4ccnc(N)n4)cc3n2)c1 [Example 0766] | < 1000 | < 1000 |
| CCC(CC)c1cnnc(Nc2ccc3ncc(-c4cn(C)nc4C)cc3n2)c1 [Example 0769] | < 1000 | < 1000 |
| CCC(CC)c1cnnc(Nc2ccc3ncc(-c4cn(C)nc4-c4ccncc4)cc3n2)c1 [Example 0770] | < 1000 | < 1000 |
| CCn1cc(-c2cnc3ccc(Nc4cc(C(C)C)cnn4)nc3c2)c(-c2ccncc2)n1 [Example 0771] | < 1000 | < 1000 |
| CC(C)c1cnnc(Nc2ccc3ncc(-c4cn(C)nc4C4CCOCC4)cc3n2)c1 [Example 0772] | < 1000 | < 1000 |
| CC(C)c1cnnc(Nc2ccc3ncc(-c4cn(C)nc4C4CN(C(=O)OC(C)(C)C)C4)cc3n2)c1 [Example 0779, tert-butyl 3-(4-(6-((5-isopropylpyridazin-3-yl)amino)-1,5-naphthyridin-3-yl)-1-methyl-1H-pyrazol-3-yl)azetidine-1-carboxylate] | < 1000 | < 1000 |
| Cn1cc(-c2cnc3ccc(Nc4cc(C(C)(C)O)cnn4)nc3c2)c(-c2ccncc2)n1 [Example 0782] | < 1000 | < 1000 |
| CC(C)(O)c1cnnc(Nc2ccc3ncc(-c4cnn(CC5CCOCC5)c4)cc3n2)c1 [Example 0783] | < 1000 | < 1000 |
| C=C(C)c1cnnc(Nc2ccc3ncc(-c4cn(C)nc4C)cc3n2)c1 [Example 0785] | < 1000 | < 1000 |
| C=C(C)c1cnnc(Nc2ccc3ncc(-c4cnn(C)c4)cc3n2)c1 [Example 0787, 7-(1-Methyl-1H-pyrazol-4-yl)-N-(5-(prop-1-en-2-yl)pyridazin-3-yl)-1,5-naphthyridine-2-amine] | < 1000 | < 1000 |
| COCC(C)c1cnnc(Nc2ccc3ncc(-c4cnn(C)c4)cc3n2)c1 (stereo not drawn) [Example 0788, N-(5-(1-methoxypropan-2-yl)pyridazin-3-yl)-7-(1-methyl-1H-pyrazol-4-yl)-1,5-naphthyridine-2-amine] | < 1000 | < 1000 |
| Cc1nn(C)cc1-c1cnc2ccc(Nc3cc(CC4CCCCC4)cnn3)nc2c1 [Example 0789] | < 1000 | < 1000 |
| Cc1nn(C)cc1-c1cnc2ccc(Nc3cc(CC(C)C)cnn3)nc2c1 [Example 0790] | < 1000 | < 1000 |
| Cc1nn(C)cc1-c1cnc2ccc(Nc3cc(C4CCC4)cnn3)nc2c1 [Example 0791] | < 1000 | < 1000 |
| COC(=O)c1ccc(Cn2cc(-c3cnc4ccc(Nc5cc(C(C)C)cnn5)nc4c3)cn2)cc1 [Example 0792] | < 1000 | < 1000 |
| COC1(C)CN(CCCn2cc(-c3cnc4ccc(Nc5cc(C(C)C)cnn5)nc4c3)cn2)C1 [Example 0794, N-(5-isopropylpyridazin-3-yl)-7-(1-(3-(3-methoxy-3-methylazetidin-1-yl)propyl)-1H-pyrazol-4-yl)-1,5-naphthyridine-2-amine] | < 1000 | < 1000 |
| COC1CN(CCCn2cc(-c3cnc4ccc(Nc5cc(C(C)C)cnn5)nc4c3)c(C)n2)C1 [Example 0796, N-(5-isopropylpyridazin-3-yl)-7-(1-(3-(3-methoxyazetidin-1-yl)propyl)-3-methyl-1H-pyrazol-4-yl)-1,5-naphthyridine-2-amine] | < 1000 | < 1000 |
| COC1(C)CN(CCCn2cc(-c3cnc4ccc(Nc5cc(C(C)C)cnn5)nc4c3)c(C)n2)C1 [Example 0797] | < 1000 | < 1000 |
| Cc1nn(CCCO)cc1-c1cnc2ccc(Nc3cc(C(C)C)cnn3)nc2c1 [Example 0800, 3-(4-(6-((5-Isopropylpyridazin-3-yl)amino)-1,5-naphthyridin-3-yl)-3-methyl-1H-pyrazol-1-yl)propan-1-ol] | < 1000 | < 1000 |
